Source: PubChem BioAssay (NCI)
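GI50 marks 50% less growth. The concentration for full growth arrest is given as TGI.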

Assays:
Experiment in all cases: inhibition of tumour cell growth, NCI panel, 384-well format
IGROV1 ovarian = system: IGROV1 ovarian
UACC-62 melanoma = system: UACC-62 melanoma
OVCAR-5 ovarian = system: OVCAR-5 ovarian
NCI-H322M lung = system: NCI-H322M lung
KM12 colon = system: KM12 colon
HOP-92 NSCLC = system: HOP-92 NSCLC
RPMI-8226 leukemia = system: RPMI-8226 leukemia
A498 renal = system: A498 renal
SF-539 CNS = system: SF-539 CNS
SF-295 CNS = system: SF-295 CNS
SK-MEL-28 melanoma = system: SK-MEL-28 melanoma
RXF 393 renal = system: RXF 393 renal
LOX IMVI melanoma = system: LOX IMVI melanoma
UO-31 renal = system: UO-31 renal
SF-268 CNS = system: SF-268 CNS
HOP-62 NSCLC = system: HOP-62 NSCLC
UACC-257 melanoma = system: UACC-257 melanoma
EKVX NSCLC = system: EKVX NSCLC
OVCAR-3 ovarian = system: OVCAR-3 ovarian
MCF7 breast = system: MCF7 breast
TK-10 renal = system: TK-10 renal
SR leukemia = system: SR leukemia
ACHN renal = system: ACHN renal
HL-60(TB) leukemia = system: HL-60(TB) leukemia
MOLT-4 leukemia = system: MOLT-4 leukemia
MALME-3M melanoma = system: MALME-3M melanoma
M14 melanoma = system: M14 melanoma
SK-MEL-5 melanoma = system: SK-MEL-5 melanoma
BT-549 breast = system: BT-549 breast
786-0 renal = system: 786-0 renal
HS 578T breast = system: HS 578T breast
COLO 205 colon = system: COLO 205 colon
A549 NSCLC = system: A549 NSCLC
HCC-2998 colon = system: HCC-2998 colon
DU-145 prostate = system: DU-145 prostate
HCT-15 colon = system: HCT-15 colon
T-47D breast = system: T-47D breast
HCT-116 colon = system: HCT-116 colon
CAKI-1 renal = system: CAKI-1 renal
SN12C renal = system: SN12C renal
HT29 colon = system: HT29 colon
NCI-H522 lung = system: NCI-H522 lung
MDA-MB-468 breast = system: MDA-MB-468 breast
MDA-MB-231 breast = system: MDA-MB-231 breast

## CCOc1cc2ncc(C#N)c(Nc3ccc(OCc4ccccn4)c(Cl)c3)c2cc1NC(=O)/C=C/CN(C)C
IGROV1 ovarian
  GI50: 25.9 nM
  TGI: 320 nM
UACC-62 melanoma
  GI50: 405 nM
  TGI: > 100000 nM
OVCAR-5 ovarian
  GI50: 864 nM
  TGI: > 100000 nM
NCI-H322M lung
  GI50: 14.9 nM
  TGI: 53 nM
KM12 colon
  GI50: 1200 nM
  TGI: 2450 nM
HOP-92 NSCLC
  GI50: 351 nM
  TGI: 1620 nM
RPMI-8226 leukemia
  GI50: 242 nM
  TGI: 515 nM
A498 renal
  GI50: 89.6 nM
  TGI: 1220 nM
SF-539 CNS
  GI50: 2170 nM
  TGI: > 100000 nM
SF-295 CNS
  GI50: > 100000 nM
  TGI: > 100000 nM
SK-MEL-28 melanoma
  GI50: > 100000 nM
  TGI: > 100000 nM
RXF 393 renal
  GI50: 143 nM
  TGI: 598 nM
LOX IMVI melanoma
  GI50: 969 nM
  TGI: 2150 nM
UO-31 renal
  GI50: 267 nM
  TGI: > 100000 nM
SF-268 CNS
  GI50: 311 nM
  TGI: > 100000 nM
HOP-62 NSCLC
  GI50: 1130 nM
  TGI: 2350 nM
UACC-257 melanoma
  GI50: 2150 nM
  TGI: > 100000 nM
EKVX NSCLC
  GI50: 41.8 nM
  TGI: 1240 nM
OVCAR-3 ovarian
  GI50: 148 nM
  TGI: > 100000 nM
MCF7 breast
  GI50: 881 nM
  TGI: 2100 nM
TK-10 renal
  GI50: 71 nM
  TGI: > 100000 nM
SR leukemia
  GI50: 530 nM
  TGI: 876 nM
ACHN renal
  GI50: 61.1 nM
  TGI: 1220 nM
HL-60(TB) leukemia
  GI50: 197 nM
  TGI: 639 nM
MOLT-4 leukemia
  GI50: 207 nM
  TGI: 511 nM
MALME-3M melanoma
  GI50: 188 nM
  TGI: 808 nM
M14 melanoma
  GI50: 276 nM
  TGI: 1180 nM
SK-MEL-5 melanoma
  GI50: 183 nM
  TGI: 474 nM
BT-549 breast
  GI50: 396 nM
  TGI: 1520 nM
786-0 renal
  GI50: 251 nM
  TGI: 1230 nM
HS 578T breast
  GI50: 220 nM
  TGI: 848 nM
COLO 205 colon
  GI50: 3670 nM
  TGI: > 100000 nM
A549 NSCLC
  GI50: 312 nM
  TGI: 1740 nM
HCC-2998 colon
  GI50: 1260 nM
  TGI: 2520 nM
DU-145 prostate
  GI50: 143 nM
  TGI: 1420 nM
HCT-15 colon
  GI50: 349 nM
  TGI: 1500 nM
T-47D breast
  GI50: < 10 nM
  TGI: > 100000 nM
HCT-116 colon
  GI50: 473 nM
  TGI: 1670 nM
CAKI-1 renal
  GI50: 98.7 nM
  TGI: 759 nM
SN12C renal
  GI50: 140 nM
  TGI: > 100000 nM
HT29 colon
  GI50: 1230 nM
  TGI: 2490 nM
NCI-H522 lung
  GI50: < 10 nM
  TGI: 63.3 nM
MDA-MB-468 breast
  GI50: < 10 nM
  TGI: 29 nM
MDA-MB-231 breast
  GI50: 754 nM
  TGI: 2000 nM
